How the values were obtained:
[1] = Times to onset, minimal and maximal, observed in the indexed observations. [column 'DELAI' in source]; conditions: human
[2] = human, serum
[3] = Proposed mechanism(s) of liver damage. [column 'MEC' in source]; conditions: human
[4] = human
[5] = human, serum; remark: listed apart in the source
[6] = human; remark: listed apart in the source
[7] = human; remark: listed apart in the source
[8] = human; remark: listed apart in the source
[9] = Highest frequency of acute liver toxicity observed during clinical trials, expressed as a percentage. [column '% AIGUE' in source]; conditions: human
[10] = Highest frequency of moderate liver toxicity observed during clinical trials, expressed as a percentage. [column '% BIOL' in source]; conditions: human
[11] = human; remark: listed apart in the source
[12] = human; remark: listed apart in the source
[13] = human; remark: listed apart in the source
[14] = Presence of at least one case with successful reintroduction. [column 'REINT' in source]; conditions: human
[15] = human; remark: listed apart in the source
[16] = human, serum, 4383 h
[17] = human; remark: listed apart in the source
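Throughout, for Hepatotoxicity (association with vascular disease): count of indexed literature references reporting vascular liver injury in humans, e.g. peliosis hepatitis, hepatic veno-occlusive disease or Budd-Chiari syndrome.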
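Throughout, for Hepatotoxicity (benign tumour): value is a count of indexed literature references citing a benign tumour confirmed by histopathology.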
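Throughout, for Hepatotoxicity (choleostasis): human cholestatic liver injury, shown by histopathology or by peak ALT or AST elevation over alkaline phosphatase ratio below 2, value counts indexed literature reports.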
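Throughout, for Hepatotoxicity (chronic liver disease): chronic liver injury confirmed by histopathology or persistently raised serum aminotransferase activity beyond 6 months, value given as the count of indexed literature references.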
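Throughout, for Hepatotoxicity (cirrhosis): value is a count of indexed literature references reporting cirrhosis confirmed by histopathology.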
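Throughout, for Hepatotoxicity (cytolytic): human cytolytic liver injury, shown by histopathology or by a ratio above 5 of peak ALT or AST elevation to alkaline phosphatase elevation, value counts indexed references.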
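Throughout, for Hepatotoxicity (granulomatous hepatitis): value is a count of indexed literature references reporting granulomatous liver disease confirmed by histopathology.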
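Throughout, for Hepatotoxicity (malignant tumour): malignant tumour confirmed by histopathology, value gives the count of indexed literature references reporting it.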
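Throughout, for Hepatotoxicity (severe hepatitis): human clinical data: severe hepatitis, meaning potentially life-threatening liver failure or clinically observed cases, the value counts how many indexed literature references report it.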
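Throughout, for Hepatotoxicity (steatosis): steatosis confirmed by histopathology, value is the count of indexed references.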

Compound	Hepatotoxicity (time to onset) [1]	Hepatotoxicity (moderate) [2]	Hepatotoxicity (mechanism) [3]	Hepatotoxicity (cytolytic) [4]	Hepatotoxicity (acute) [5]	Hepatotoxicity (severe hepatitis) ([6]; Liver)	Hepatotoxicity (steatosis) [7]	Hepatotoxicity (cirrhosis) [8]	Hepatotoxicity (acute) ([9]; Liver) [%]	Hepatotoxicity (moderate) ([10]; Liver) [%]	Hepatotoxicity (granulomatous hepatitis) [11]	Hepatotoxicity (association with vascular disease) [12]	Hepatotoxicity (choleostasis) [13]	Hepatotoxicity (successful reintroduction) [14]	Hepatotoxicity (benign tumour) [15]	Hepatotoxicity (chronic liver disease) [16]	Hepatotoxicity (malignant tumour) [17]	Hepatotoxicity (severe hepatitis) [6]	Hepatotoxicity (acute) [9] [%]	Hepatotoxicity (moderate) [10] [%]	other results
CCCSc1ccc2nc(NC(=O)OC)[nH]c2c1 [ALBENDAZOLE]	1 week - 6 months	25	Reactive metabolite	3	8	0	0	0	5	100	0	0	2	yes	0	0	0	–	–	–	–
NCC(=O)CCC(=O)O [AMINOLEVULINIC ACID]	3 days	7	Dose-dependant	0	0	–	0	0	–	–	0	0	0	yes	0	0	0	0	0	66.7	–
Nc1ccc(C(=O)O)c(O)c1 [AMINOSALICYLIC ACID]	2 weeks - 2 months	6	Allergic	11	17	–	0	0	–	–	0	0	9	yes	0	0	0	6	6.4	35.3	–
O=C(O)COc1nn(Cc2ccccc2)c2ccccc12 [BENDAZAC]	3 weeks - 3.5 years	0	–	–	6	0	0	0	0	0	–	0	–	yes	0	0	0	–	–	–	Hepatotoxicity (mechanism) ([3]; Liver): Allergic; Hepatotoxicity (cytolytic) ([4]; Liver): 3; Hepatotoxicity (granulomatous hepatitis) ([11]; Liver): 0; Hepatotoxicity (choleostasis) ([13]; Liver): 2
CC(C)C[C@H]1C(=O)N2CCC[C@H]2[C@]2(O)O[C@](NC(=O)[C@@H]3C=C4c5cccc6[nH]c(Br)c(c56)C[C@H]4N(C)C3)(C(C)C)C(=O)N12 [BROMOCRIPTINE]	4 days - 2 months	6	Dose-dependant	2	2	–	0	0	–	–	0	0	0	yes	0	0	0	0	0	22	–
CO[C@]12CC[C@@]3(C[C@@H]1[C@](C)(O)C(C)(C)C)[C@H]1Cc4ccc(O)c5c4[C@@]3(CCN1CC1CC1)[C@H]2O5 [BUPRENORPHINE]	2 days - 3 months	1	Allergic, Overdose	2	3	–	0	0	–	–	0	0	0	yes	0	0	0	2	0	71	–
CN1C(=O)CCS(=O)(=O)C1c1ccc(Cl)cc1 (stereo unspecified) [CHLORMEZANONE]	1 day - 4 weeks	0	Allergic, Dose-dependant	1	8	–	0	0	–	–	0	0	7	yes	0	0	0	2	0	0	–
COC(=O)[C@H](c1ccccc1Cl)N1CCc2sccc2C1 [CLOPIDOGREL]	4 days - 5.5 months	2	–	–	5	0	0	0	0	3	–	0	–	yes	0	0	0	–	–	–	Hepatotoxicity (mechanism) ([3]; Liver): Allergic; Hepatotoxicity (cytolytic) ([4]; Liver): 4; Hepatotoxicity (granulomatous hepatitis) ([11]; Liver): 0; Hepatotoxicity (choleostasis) ([13]; Liver): 1
Cc1onc(-c2ccccc2Cl)c1C(=O)N[C@@H]1C(=O)N2[C@@H]1SC(C)(C)[C@@H]2C(=O)O [CLOXACILLIN]	2 days - 1 month	5	Allergic	0	9	–	0	0	–	–	0	0	8	yes	0	0	0	0	0	25	–
CC(C)N(CCC(C(N)=O)(c1ccccc1)c1ccccn1)C(C)C (stereo unspecified) [DISOPYRAMIDE]	2 weeks - 1 year	1	Allergic	6	14	–	0	0	–	–	0	0	10	yes	0	1	0	0	0.1	0.3	–
CC[C@@H](CO)NCCN[C@@H](CC)CO [ETHAMBUTOL]	1.5 months - 2 months	1	Allergic	1	6	–	0	0	–	–	0	0	1	yes	0	0	0	0	0	0	–
CCc1cc(C(N)=S)ccn1 [ETHIONAMIDE]	1 month - 2 years	11	–	–	15	2	0	0	5.4	37	–	0	–	yes	0	0	0	–	–	–	Hepatotoxicity (mechanism) ([3]; Liver): Allergic; Hepatotoxicity (cytolytic) ([4]; Liver): 7; Hepatotoxicity (granulomatous hepatitis) ([11]; Liver): 0; Hepatotoxicity (choleostasis) ([13]; Liver): 6
OC(Cn1cncn1)(Cn1cncn1)c1ccc(F)cc1F [FLUCONAZOLE]	2 days - 10 months	84	–	–	25	7	1	0	6.3	83.3	–	0	–	yes	0	0	0	–	–	–	Hepatotoxicity (mechanism) ([3]; Liver): Dose-dependant; Hepatotoxicity (cytolytic) ([4]; Liver): 15; Hepatotoxicity (granulomatous hepatitis) ([11]; Liver): 1; Hepatotoxicity (choleostasis) ([13]; Liver): 13

— ChEMBL document CHEMBL3137667, “[Drug-induced liver injury; fourteenth updated edition of the bibliographic database of liver injuries and related drugs]” (Gastroenterol Clin Biol, 2004)
